Laboratory results taken from patent US20260137809A1, “GENE THERAPY VECTORS FOR TREATMENT OF CANCER” (Siren Biotechnology, Inc., priority 2022, published 2026).

Legend:
[1] = tested on: X^on induction system; experiment: Dose studies with various inducer molecules, AAV-CAG-X^on-eGFP fluorescence (Example 3); type: cell-based; conditions: cells transduced with 1e^6 vg/cell AAV-CAG-X^on-eGFP; inducer added after 24 hours at 4 concentrations
Procedure: Briefly, cells were seeded in black 96-well plates for 24 hours and transduced with 1e^6 vg/cell AAV-CAG-X^on-eGFP as described in Example 1. After 24 hours, each inducer was added directly into the cell media at 4 different concentrations each. Cells expressing the eGFP payload were visualized by fluorescent live imaging (20× magnification) after induction with branaplam (FIG. 20A) or RG7800 (FIG. 20B). Cells were counter-stained with […] Hoechst to identify nuclei and determine total cell counts for normalization. The number of eGFP-positive cells as well as the green fluorescence intensity was measured for each well and each condition up to 9 hours post-induction to determine the kinetics of the payload expression post-induction (FIGS. 20C-20H).

[2] = tested on: X^on splicing control element; experiment: Kinetics of eGFP induction with branaplam and RG7800-HCl, live cell imaging (Example 4); type: cell-based; conditions: for induced eGFP expression level compared with the constitutive construct: AAV-CAG-X^on-eGFP versus constitutive AAV-CAG-eGFP, inducer at optimal concentrations; for course of eGFP payload expression after induction: AAV-CAG-X^on-eGFP, monitored for 14, 28 or 84 hours
Procedure: Cells were seeded in 96-well plates for 24 hours and transduced with AAV-CAG-X^on-eGFP or constitutive AAV-CAG-eGFP as the positive control, and treated with or without branaplam or RG7800-HCl. Fluorescent eGFP payload expression was monitored for a total of 14 hours (FIGS. 21A-21D) or 28 hours (FIGS. 22A-22D) by live cell imaging.

[3] = tested on: X^on splicing element; experiment: Inducible AAV-GFP / AAV-eGFP expression after the inducer branaplam, live fluorescent imaging (Example 2); type: cell-based, human; conditions: HEK293-T cells transduced with AAV-CAG-X^on-eGFP, branaplam 125 nM
Excerpt: Adherent human HEK293-T cells were transduced with inducible AAV-GFP, followed by fluorescent imaging for GFP expression pre- and post-administration of an inducer molecule (e.g., branaplam). The data is seen in FIG. 17.
Adherent human HEK293-T cells were transduced with AAV-GFP at varying dosages, followed by administration of an inducer molecule (e.g., branaplam), and monitored for GFP expression over several hours to determine initial expression kinetics at different AAV dosages in vitro. The data is seen in FIG. 19.
In a similar set of experiments, HEK293-T cells were plated in a 96-well plate for 24 hours and transduced with a broad range of multiplicity of infection (MOI) using a constitutively-expressing payload expression construct, AAV-CAG-eGFP, to determine the necessary MOI for detectable eGFP expression prior to advancing to the inducible constructs described in Example 1. MOIs tested ranged from 3E4 to 4E6 vg/cell. Transduction efficacy was assessed by measuring the eGFP payload expression from transduced cells using a fluorescent microscopy imager (FIG. 18). Once an MOI was selected, the inducible AAV-CAG-X^on-eGFP was tested with an inducer molecule, branaplam at 125 nM, 24 hours post-transduction. […] Control cells were transduced with AAV-CAG-X^on-eGFP without the addition of an inducer. […]

[4] = tested on: X^on splicing control element; experiment: ON/OFF control of fLuc expression with cycles of branaplam (Example 6); type: cell-based, human; conditions: HEK293-T, AAV-CAG-X^on-fLuc, MOI 2.5E5 vg/cell
Procedure: HEK293-T cells were transduced with AAV and then branaplam, and after 24 hours of induction with branaplam, supernatants were harvested and assayed for luciferase expression, and the media was replaced with fresh medium without branaplam. Supernatants for the next timepoint were then harvested after 24 hours in the condition without branaplam, and the cycle was repeated (e.g., one or two or more times; FIG. 25A). Briefly, HEK293-T cells were transduced with an MOI of 2.5E5 vg/cell of AAV-CAG-X^on-fLuc (FIG. 25B) for 24 hours, followed by addition of branaplam at 3 different concentrations at hour 24 for an additional 24 hours (“ON”). Supernatants were then harvested for the measurement of fLuc, and media was replaced with fresh media lacking branaplam (“OFF”) for 24 hours. Supernatants were harvested after 24 hours in the OFF state. fLuc luminescent signal was measured for each cycle in sample supernatants at each time point and condition described (FIG. 25C).

[5] = tested on: X^on splicing control element; experiment: ON/OFF control of hIFNβ expression with branaplam, ELISA of supernatants (Example 7); type: cell-based, human; conditions: HEK293-T, AAV-CAG-X^on-hIFNβ, MOI 2.5e^5 vg/cell
Procedure: Briefly, HEK293-T cells were transduced with an MOI of 2.5e^5 vg/cell of AAV-CAG-X^on-hIFNβ or constitutive AAV-CAG-hIFNβ for 24 hours. 24 hours post-transduction with AAV, branaplam was added to the cell media to induce human IFNβ (hIFNβ) expression (“ON”). After 24 hours, media supernatants were harvested for payload measurement and fresh media lacking Branaplam (“OFF”). 24 hours later, media supernatants were harvested for payload detection (FIG. 25A). Amounts of hIFNβ were measured in picograms per milliliter (pg/mL) (FIG. 26A) using an ELISA kit for hIFNβ in supernatants before and after induction with branaplam, and after removal of branaplam. FIG. 26B depicts the expression of hIFNβ following transduction with AAV-CAG-X^on-hIFNβ normalized to the levels of expression obtained with the constitutive payload.

Compound	active concentration for induction of eGFP payload expression [1] [µM]	induced eGFP expression level compared with the constitutive construct [2]	course of eGFP payload expression after induction [2]	detectable GFP and eGFP expression, earliest time post-induction ([3]; 24 hours post-transduction, imaging every 30 minutes) [h]	course of GFP and eGFP signal post-induction ([3]; read up to 5 hours)	fLuc expression in OFF conditions (without branaplam for 24 hours) [4]	re-induction of fLuc expression achievable and detectable, number of cycles [4]	dose of branaplam needed to mediate reliable payload expression and cycle control ([4]; 3 concentrations, 24 hours ON / 24 hours OFF) [nM]	number of repeat ON/OFF cycles on the same transduced cells [5]	time to induced expression of hIFNβ after induction ([5]; ELISA of supernatant) [h]	time until hIFNβ expression stopped after removal of branaplam ([5]; ELISA of supernatant) [h]
CCc1nc(C)cn2nc(-c3cc(=O)n4cc(C5CCN(C)CC5)cc(C)c4n3)cc12.Cl [RG7800-HCl]	20	nearly the same levels of expression	continued to increase over the first 12 hours, followed by a slower increase to 24 hours								
CCc1nc(C)cn2nc(-c3cc(=O)n4cc(C5CCN(C)CC5)cc(C)c4n3)cc12 [RG7800]	20										
CC1(C)CC(Oc2ccc(-c3ccc(-c4cn[nH]c4)cc3O)nn2)CC(C)(C)N1 [branaplam]		nearly the same levels of expression	continued to increase over the first 12 hours, followed by a slower increase to 24 hours	3	continuing to increase up to 5 hours post-induction	reliably reduced expression of the fLuc	at least 2 full induction cycles	≥ 200	up to 2 repeat cycles	≤ 24	≤ 24
